Tested on: SK-N-MM (SKNMM-MYCN, doxycycline-inducible MYCN)
Test: area under dose-response curve (CellTiter-Glo viability normalised to plate controls) (AUC (arbitrary units)); higher = more loss of viability; extreme values may be limits of the assay
How it was run: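 In 96-well plates, SK-N-MM cells with doxycycline-inducible MYCN (1250 cells/100 μL) were given medium with or without doxycycline about 24 h after plating. Compound dilution series of 10 points at 1:3 were added two days later and again on day 4, and CellTiter-Glo luminescence was recorded 3 or 8 days after drugging. The area under the dose-response curve was derived from log2 signals normalised to the positive and negative controls on each plate.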

[1] = MYCN induction (doxycycline): +doxycycline (MYCN induced), time after drugging: 3 days
[2] = MYCN induction (doxycycline): +doxycycline (MYCN induced), time after drugging: 8 days
[3] = MYCN induction (doxycycline): no doxycycline (MYCN not induced), time after drugging: 3 days
[4] = MYCN induction (doxycycline): no doxycycline (MYCN not induced), time after drugging: 8 days

CC(C)(C#N)c1cc(Cn2cncn2)cc(C(C)(C)C#N)c1 [ANASTROZOLE]
area under dose-response curve [1]: 4.86 | area under dose-response curve [2]: 89.8 | area under dose-response curve [3]: 0 | area under dose-response curve [4]: 77.4

CC[C@@H]1C(=O)N(C)c2cnc(Nc3ccc(C(=O)NC4CCN(C)CC4)cc3OC)nc2N1C1CCCC1 [BI-2536]
area under dose-response curve [1]: 85.3 | area under dose-response curve [2]: 213 | area under dose-response curve [3]: 65.4 | area under dose-response curve [4]: 92.1

C[C@@H]1O[C@@H](O[C@H]2C[C@@H](O)[C@]3(CO)[C@H]4[C@H](O)C[C@]5(C)[C@@H](C6=CC(=O)OC6)CC[C@]5(O)[C@@H]4CC[C@]3(O)C2)[C@H](O)[C@H](O)[C@H]1O [OUABAIN]
area under dose-response curve [1]: 178 | area under dose-response curve [2]: 280 | area under dose-response curve [3]: 173 | area under dose-response curve [4]: 275

CN(Cc1cnc2nc(N)nc(N)c2n1)c1ccc(C(=O)N[C@@H](CCC(=O)O)C(=O)O)cc1 [METHOTREXATE]
area under dose-response curve [1]: 3.6 | area under dose-response curve [2]: 18.6 | area under dose-response curve [3]: 0.0478

O=C1NC(=O)[C@@H](c2cn3c4c(cccc24)CCC3)[C@@H]1c1c[nH]c2ccccc12 [TIVANTINIB]
area under dose-response curve [1]: 102 | area under dose-response curve [2]: 135 | area under dose-response curve [3]: 53.3 | area under dose-response curve [4]: 77.2

COc1ccc(-c2cc(=O)c3c(O)cc(O)c(-c4cc(-c5cc(=O)c6c(O)cc(O)cc6o5)ccc4OC)c3o2)cc1 [ISOGINKGETIN]
area under dose-response curve [2]: 61.2 | area under dose-response curve [3]: 15.4 | area under dose-response curve [4]: 24.2

Cc1nc(-c2cn3c(n2)-c2ccc(-c4cnn(C(C)(C)C(N)=O)c4)cc2OCC3)n(C(C)C)n1 [TASELISIB]
area under dose-response curve [1]: 23.1 | area under dose-response curve [2]: 34.9 | area under dose-response curve [3]: 34.6 | area under dose-response curve [4]: 39

COc1cc(CCc2cc(NC(=O)c3ccc(N4CC(C)NC(C)C4)cc3)n[nH]2)cc(OC)c1 (centres undefined) [AZD4547]
area under dose-response curve [1]: 2.86 | area under dose-response curve [2]: 3.53 | area under dose-response curve [3]: 2.67 | area under dose-response curve [4]: 3.59

Cc1cnc(CNC(=O)c2c(=O)c3ccc(N4CCCN(C)CC4)nc3n3c2sc2ccccc23)cn1 [CX-5461]
area under dose-response curve [2]: 11.3 | area under dose-response curve [3]: 11.7

CO[C@H]1C(=O)[C@]2(C)[C@@H](OC)C[C@H]3OC[C@@]3(OC(C)=O)[C@H]2[C@H](OC(=O)c2ccccc2)[C@]2(O)C[C@H](OC(=O)[C@H](O)[C@@H](NC(=O)OC(C)(C)C)c3ccccc3)C(C)=C1C2(C)C [CABAZITAXEL]
area under dose-response curve [1]: 195 | area under dose-response curve [2]: 350 | area under dose-response curve [3]: 140 | area under dose-response curve [4]: 225

N[C@H](CCC(=O)N[C@@H](Cc1c[nH]c2ccccc12)C(=O)O)C(=O)O [GOLOTIMOD]
area under dose-response curve [2]: 0 | area under dose-response curve [3]: 0 | area under dose-response curve [4]: 12.7

Cn1cnc2c(F)c(Nc3ccc(Br)cc3Cl)c(C(=O)NOCCO)cc21 [SELUMETINIB]
area under dose-response curve [1]: 0 | area under dose-response curve [2]: 0 | area under dose-response curve [3]: 0.45 | area under dose-response curve [4]: 18.9

CON(C)C(=O)N1N=C(c2cc(F)ccc2F)S[C@@]1(CCCN)c1ccccc1 [ARRY-520]
area under dose-response curve [1]: 218 | area under dose-response curve [2]: 288 | area under dose-response curve [3]: 108 | area under dose-response curve [4]: 154

O=c1[nH]c(=O)n([C@H]2C[C@H](O)[C@@H](CO)O2)cc1/C=C/Br [BRIVUDINE]
area under dose-response curve [1]: 0.716 | area under dose-response curve [2]: 11.1 | area under dose-response curve [3]: 0 | area under dose-response curve [4]: 0.883

COC(=O)N[C@@H](C)CNc1nccc(-c2cn(C(C)C)nc2-c2cc(Cl)cc(NS(C)(=O)=O)c2F)n1 [LGX-818]
area under dose-response curve [1]: 12.9 | area under dose-response curve [2]: 2.41 | area under dose-response curve [3]: 11 | area under dose-response curve [4]: 68.6

CC(C)n1c(/C=C/C(O)CC(O)CC(=O)O)c(-c2ccc(F)cc2)c2ccccc21 (centres undefined) [FLUVASTATIN]
area under dose-response curve [1]: 2.15 | area under dose-response curve [2]: 11 | area under dose-response curve [3]: 0 | area under dose-response curve [4]: 4.98

O=c1[nH]cc(F)c(=O)[nH]1 [5-FLUOROURACIL]
area under dose-response curve [1]: 12.1 | area under dose-response curve [2]: 24.8 | area under dose-response curve [3]: 6.6 | area under dose-response curve [4]: 25

C1=N/C2=N/c3ccc(OCCN4CCCC4)c(c3)COC/C=C/COCc3cccc(c3)C(=C1)N2 [PACRITINIB]
area under dose-response curve [1]: 170 | area under dose-response curve [2]: 176 | area under dose-response curve [3]: 165 | area under dose-response curve [4]: 198

O=c1[nH]c(=O)n([C@H]2C[C@H](O)[C@@H](CO)O2)cc1F [FLOXURIDINE]
area under dose-response curve [1]: 23.4 | area under dose-response curve [2]: 165 | area under dose-response curve [3]: 11.8 | area under dose-response curve [4]: 66.3

Cc1cn(-c2cc(NC(=O)c3ccc(C)c(Nc4nccc(-c5cccnc5)n4)c3)cc(C(F)(F)F)c2)cn1 [NILOTINIB]
area under dose-response curve [1]: 2.25 | area under dose-response curve [2]: 2.7 | area under dose-response curve [3]: 2.22 | area under dose-response curve [4]: 3.03

CO[C@@H]1[C@H](N(C)C(=O)c2ccccc2)C[C@H]2O[C@]1(C)n1c3ccccc3c3c4c(c5c6ccccc6n2c5c31)C(=O)NC4 [MIDOSTAURIN]
area under dose-response curve [1]: 59.7 | area under dose-response curve [2]: 122 | area under dose-response curve [3]: 65.6 | area under dose-response curve [4]: 127

Reference: the supplement of paper PMC7021759
